Laboratory results: patent publication US20100160454A1, “ANTIMICROBIAL AGENTS, COMPOSITIONS AND PRODUCTS CONTAINING THE SAME, AND METHODS OF USING THE COMPOSITIONS AND PRODUCTS” (Eastman Chemical Company, priority 2008, published 2010)

Key:
Experiment in all cases: Challenge testing against pathogenic fungi, growth rating in broth tubes
Type in all cases: cell-based
Design in all cases: key: 0: No visible growth; 1: Some growth in tube; 2: Moderate growth in tube; 3: Good growth in tube; 4: Extreme growth in tube
[1] = test system: Microsporum canis (ATTC 9084)
Procedure: (§1) Both Microsporum canis and Trichophyton rubrum were grown on Sabouraud dextrose broth, while Malassezia fufur was grown in Sabouraud dextrose broth supplemented with 2% (v/v) of olive oil and 0.2% (v/v) of Tween™ 80; incubation was at 22°±2° C. under continuous agitation by stirring for 10 days. The organisms were grown to a density of between 1.0×10^3 to 1.0×10^4 cfu/g. The actual inoculation cell density of these challenges were determined by diluting in sterile buffer water and (spread-plate method) plating for enumeration.
(§2) Challenge organisms were used to inoculate tubes of 1,4-CHDM-D90 test concentrations prepared in Sabouraud dextrose broth (or Sabouraud dextrose broth supplemented with olive oil-Tween™ 80 with M. furfur). The inoculations were in the amount of 1.5 mL aliquots of each culture with static incubation at 22±2° C. Subcultures were made at 3-, 14- and 30-day increments. All challenges were conducted in triplicate. In the case of M. canis, the growth response was assessed by the visual presence/absence of growth in the tubes; in the case of T. rubrum, a respiratory (redox) dye (0.2% w/v aqueous INT solution: 2-[4-iodophenyl)-3-4-nitrophenyl]-5-phenyl tetrazolium chloride) was added to the tubes, turning red if the organism was viable; and, finally, in the case of M. furfur, the growth response was assessed based upon pellicle formation in the tubes at the meniscus. The test formulations and challenge test results, as well as 30-day MICs (Minimum Inhibitory Concentration), are in Tables 7-9 for the three organisms using the following growth rating system:
(§3) • 0: No visible growth • 1: Some growth in tube • 2: Moderate growth in tube • 3: Good growth in tube • 4: Extreme growth in tube

[2] = test system: Trichophyton rubrum (ATCC 10218)
Procedure: as §1, §2, §3

[3] = test system: Malassezia furfur (ATCC 96809)
Procedure: as §1, §2, §3

Row | Compound | M. canis growth rating, 3 day ([1]; 0.5% weight/volume) | M. canis growth rating, 14 day ([1]; 0.5% weight/volume) | M. canis growth rating, 30 day ([1]; 0.5% weight/volume) | M. canis growth rating, 3 day ([1]; 1.25% weight/volume) | M. canis growth rating, 14 day ([1]; 1.25% weight/volume) | M. canis growth rating, 30 day ([1]; 1.25% weight/volume) | M. canis growth rating, 3 day ([1]; 2.5% weight/volume) | M. canis growth rating, 14 day ([1]; 2.5% weight/volume) | M. canis growth rating, 30 day ([1]; 2.5% weight/volume) | M. canis growth rating, 3 day ([1]; 5.0% weight/volume) | M. canis growth rating, 14 day ([1]; 5.0% weight/volume) | M. canis growth rating, 30 day ([1]; 5.0% weight/volume) | T. rubrum growth rating, 3 day ([2]; 0.5% weight/volume) | T. rubrum growth rating, 14 day ([2]; 0.5% weight/volume) | T. rubrum growth rating, 30 day ([2]; 0.5% weight/volume) | T. rubrum growth rating, 3 day ([2]; 1.25% weight/volume) | T. rubrum growth rating, 14 day ([2]; 1.25% weight/volume) | T. rubrum growth rating, 30 day ([2]; 1.25% weight/volume) | T. rubrum growth rating, 3 day ([2]; 2.5% weight/volume) | T. rubrum growth rating, 14 day ([2]; 2.5% weight/volume) | other results
1 | OCC1CCCC(CO)C1 (stereo not drawn) [1,3-CHDM, 1,3-cyclohexanedimethanol] | 2 | 1 | 1 | 2 | 1 | 1 | 0 | 0 | 0 | 2 | 1 | 1 | 0 | 2 | 1 | 1 | 0 | 0 | 0 | 0 | T. rubrum growth rating, 30 day ([2]; 2.5% weight/volume): 0; T. rubrum growth rating, 3 day ([2]; 5.0% weight/volume): 2; T. rubrum growth rating, 14 day ([2]; 5.0% weight/volume): 0; T. rubrum growth rating, 30 day ([2]; 5.0% weight/volume): 0; M. furfur growth rating, 3 day ([3]; 0.5% weight/volume): 0; M. furfur growth rating, 14 day ([3]; 0.5% weight/volume): 1; M. furfur growth rating, 30 day ([3]; 0.5% weight/volume): 3; M. furfur growth rating, 3 day ([3]; 1.25% weight/volume): 0; M. furfur growth rating, 14 day ([3]; 1.25% weight/volume): 2; M. furfur growth rating, 30 day ([3]; 1.25% weight/volume): 3; M. furfur growth rating, 3 day ([3]; 2.5% weight/volume): 0; M. furfur growth rating, 14 day ([3]; 2.5% weight/volume): 0; M. furfur growth rating, 30 day ([3]; 2.5% weight/volume): 0; M. furfur growth rating, 3 day ([3]; 5.0% weight/volume): 0; M. furfur growth rating, 14 day ([3]; 5.0% weight/volume): 2; M. furfur growth rating, 30 day ([3]; 5.0% weight/volume): 3
2 | O=C([O-])CN(CCN(CC(=O)[O-])CC(=O)O)CC(=O)O.[Na+].[Na+] [EDTA, Na2EDTA] | 2 | 1 | 0 | 2 | 1 | 0 | 2 | 1 | 0 | 2 | 0 | 0 | 1 | 0 | 0 | 0 | 0 | 0 | 1 | 0 | T. rubrum growth rating, 30 day ([2]; 2.5% weight/volume): 0; T. rubrum growth rating, 3 day ([2]; 5.0% weight/volume): 1; T. rubrum growth rating, 14 day ([2]; 5.0% weight/volume): 0; T. rubrum growth rating, 30 day ([2]; 5.0% weight/volume): 0; M. furfur growth rating, 3 day ([3]; 0.5% weight/volume): 0; M. furfur growth rating, 14 day ([3]; 0.5% weight/volume): 0; M. furfur growth rating, 30 day ([3]; 0.5% weight/volume): 0; M. furfur growth rating, 3 day ([3]; 1.25% weight/volume): 0; M. furfur growth rating, 14 day ([3]; 1.25% weight/volume): 0; M. furfur growth rating, 30 day ([3]; 1.25% weight/volume): 0; M. furfur growth rating, 3 day ([3]; 2.5% weight/volume): 0; M. furfur growth rating, 14 day ([3]; 2.5% weight/volume): 0; M. furfur growth rating, 30 day ([3]; 2.5% weight/volume): 0; M. furfur growth rating, 3 day ([3]; 5.0% weight/volume): 0; M. furfur growth rating, 14 day ([3]; 5.0% weight/volume): 0; M. furfur growth rating, 30 day ([3]; 5.0% weight/volume): 0
3 | OCC1CCC(CO)CC1 (stereo not drawn) [1,4-CHDM, 1,4-cyclohexanedimethanol] | 2 | 1 | 1 | 2 | 1 | 1 | 2 | 0 | 0 | 0 | 0 | 0 | 1 | 1 | 1 | 0 | 0 | 0 | 0 | 0 | T. rubrum growth rating, 30 day ([2]; 2.5% weight/volume): 0; T. rubrum growth rating, 3 day ([2]; 5.0% weight/volume): 1; T. rubrum growth rating, 14 day ([2]; 5.0% weight/volume): 0; T. rubrum growth rating, 30 day ([2]; 5.0% weight/volume): 0; M. furfur growth rating, 3 day ([3]; 0.5% weight/volume): 0; M. furfur growth rating, 14 day ([3]; 0.5% weight/volume): 1; M. furfur growth rating, 30 day ([3]; 0.5% weight/volume): 2; M. furfur growth rating, 3 day ([3]; 1.25% weight/volume): 0; M. furfur growth rating, 14 day ([3]; 1.25% weight/volume): 0; M. furfur growth rating, 30 day ([3]; 1.25% weight/volume): 0; M. furfur growth rating, 3 day ([3]; 2.5% weight/volume): 0; M. furfur growth rating, 14 day ([3]; 2.5% weight/volume): 0; M. furfur growth rating, 30 day ([3]; 2.5% weight/volume): 0; M. furfur growth rating, 3 day ([3]; 5.0% weight/volume): 0; M. furfur growth rating, 14 day ([3]; 5.0% weight/volume): 0; M. furfur growth rating, 30 day ([3]; 5.0% weight/volume): 0
4 | CC1(C)C(O)C(C)(C)C1O (stereo not drawn) [TMCBD, 2,2,4,4-tetramethyl-1,3-cyclobutanediol] | 2 | 1 | 1 | 2 | 1 | 0 | 2 | 1 | 1 | 2 | 1 | 1 | 1 | 1 | 0 | 0 | 0 | 1 | 0 | 0 | T. rubrum growth rating, 30 day ([2]; 2.5% weight/volume): 0; T. rubrum growth rating, 3 day ([2]; 5.0% weight/volume): 0; T. rubrum growth rating, 14 day ([2]; 5.0% weight/volume): 0; T. rubrum growth rating, 30 day ([2]; 5.0% weight/volume): 0; M. furfur growth rating, 3 day ([3]; 0.5% weight/volume): 0; M. furfur growth rating, 14 day ([3]; 0.5% weight/volume): 1; M. furfur growth rating, 30 day ([3]; 0.5% weight/volume): 2; M. furfur growth rating, 3 day ([3]; 1.25% weight/volume): 0; M. furfur growth rating, 14 day ([3]; 1.25% weight/volume): 1; M. furfur growth rating, 30 day ([3]; 1.25% weight/volume): 2; M. furfur growth rating, 3 day ([3]; 2.5% weight/volume): 0; M. furfur growth rating, 14 day ([3]; 2.5% weight/volume): 0; M. furfur growth rating, 30 day ([3]; 2.5% weight/volume): 0; M. furfur growth rating, 3 day ([3]; 5.0% weight/volume): 0; M. furfur growth rating, 14 day ([3]; 5.0% weight/volume): 0; M. furfur growth rating, 30 day ([3]; 5.0% weight/volume): 0
5 | CC(O)CO (stereo not drawn) [PG, propylene glycol] | 2 | 1 | 2 | 2 | 1 | 1 | 1 | 1 | 2 | 1 | 1 | 2 | 0 | 1 | 1 | 1 | 0 | 1 | 1 | 0 | T. rubrum growth rating, 30 day ([2]; 2.5% weight/volume): 1; T. rubrum growth rating, 3 day ([2]; 5.0% weight/volume): 1; T. rubrum growth rating, 14 day ([2]; 5.0% weight/volume): 0; T. rubrum growth rating, 30 day ([2]; 5.0% weight/volume): 1; M. furfur growth rating, 3 day ([3]; 0.5% weight/volume): 0; M. furfur growth rating, 14 day ([3]; 0.5% weight/volume): 3; M. furfur growth rating, 30 day ([3]; 0.5% weight/volume): 3; M. furfur growth rating, 3 day ([3]; 1.25% weight/volume): 0; M. furfur growth rating, 14 day ([3]; 1.25% weight/volume): 3; M. furfur growth rating, 30 day ([3]; 1.25% weight/volume): 3; M. furfur growth rating, 3 day ([3]; 2.5% weight/volume): 0; M. furfur growth rating, 14 day ([3]; 2.5% weight/volume): 3; M. furfur growth rating, 30 day ([3]; 2.5% weight/volume): 3; M. furfur growth rating, 3 day ([3]; 5.0% weight/volume): 0; M. furfur growth rating, 14 day ([3]; 5.0% weight/volume): 0; M. furfur growth rating, 30 day ([3]; 5.0% weight/volume): 3
6 | OCC1CCCCC1CO (stereo not drawn) [1,2-CHDM, 1,2-cyclohexanedimethanol] | 2 | 1 | 1 | 1 | 0 | 0 | 0 | 0 | 0 | 0 | 0 | 0 | 0 | 0 | 0 | 0 | 0 | 0 | 1 | 0 | T. rubrum growth rating, 30 day ([2]; 2.5% weight/volume): 0; T. rubrum growth rating, 3 day ([2]; 5.0% weight/volume): 0; T. rubrum growth rating, 14 day ([2]; 5.0% weight/volume): 0; T. rubrum growth rating, 30 day ([2]; 5.0% weight/volume): 0; M. furfur growth rating, 3 day ([3]; 0.5% weight/volume): 0; M. furfur growth rating, 14 day ([3]; 0.5% weight/volume): 0; M. furfur growth rating, 30 day ([3]; 0.5% weight/volume): 0; M. furfur growth rating, 3 day ([3]; 1.25% weight/volume): 0; M. furfur growth rating, 14 day ([3]; 1.25% weight/volume): 0; M. furfur growth rating, 30 day ([3]; 1.25% weight/volume): 0; M. furfur growth rating, 3 day ([3]; 2.5% weight/volume): 0; M. furfur growth rating, 14 day ([3]; 2.5% weight/volume): 0; M. furfur growth rating, 30 day ([3]; 2.5% weight/volume): 0; M. furfur growth rating, 3 day ([3]; 5.0% weight/volume): 0; M. furfur growth rating, 14 day ([3]; 5.0% weight/volume): 0; M. furfur growth rating, 30 day ([3]; 5.0% weight/volume): 0
